Tests used:
[1] = organism: Homo sapiens; test: Selectivity ratio of IC50 for human CYP3A4 bound to yeast microsomal membrane to IC50 for human CYP1A2 bound to yeast microsomal membrane
[2] = molecular target: T1, Cytochrome P450 1B1 (Homo sapiens, UniProt Q16678); test: Inhibition of human CYP1B1 transfected in HEK293 cells assessed as reduction in cisplatin EC50 at 20 uM by MTT assay; assay type: cell-based; settings: hek293, 20 µM
T1 sequence (Q16678 whole entry): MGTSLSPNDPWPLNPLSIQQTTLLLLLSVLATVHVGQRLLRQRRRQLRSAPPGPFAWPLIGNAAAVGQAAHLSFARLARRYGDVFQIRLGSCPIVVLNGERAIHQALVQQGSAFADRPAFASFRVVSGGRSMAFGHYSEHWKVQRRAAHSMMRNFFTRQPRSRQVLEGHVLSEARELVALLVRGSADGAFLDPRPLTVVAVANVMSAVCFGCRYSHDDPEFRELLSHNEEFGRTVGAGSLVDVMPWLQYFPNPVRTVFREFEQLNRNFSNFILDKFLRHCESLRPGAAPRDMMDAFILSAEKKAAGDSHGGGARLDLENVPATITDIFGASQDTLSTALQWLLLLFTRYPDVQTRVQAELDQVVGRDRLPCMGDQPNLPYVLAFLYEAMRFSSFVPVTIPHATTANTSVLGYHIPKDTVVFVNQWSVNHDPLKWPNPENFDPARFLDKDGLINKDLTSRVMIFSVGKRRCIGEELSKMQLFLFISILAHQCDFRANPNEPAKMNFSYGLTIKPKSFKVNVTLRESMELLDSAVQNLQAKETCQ

[3] = molecular target: T2, Cytochrome P450 1A1 (Homo sapiens, UniProt P04798); test: Inhibition of human CYP1A1 transfected in HEK293 cells assessed as protection from CYP1A1 mediated B[a]P toxicity at 8 times IC50 by MTT assay; assay type: cell-based
T2 sequence (P04798 whole entry): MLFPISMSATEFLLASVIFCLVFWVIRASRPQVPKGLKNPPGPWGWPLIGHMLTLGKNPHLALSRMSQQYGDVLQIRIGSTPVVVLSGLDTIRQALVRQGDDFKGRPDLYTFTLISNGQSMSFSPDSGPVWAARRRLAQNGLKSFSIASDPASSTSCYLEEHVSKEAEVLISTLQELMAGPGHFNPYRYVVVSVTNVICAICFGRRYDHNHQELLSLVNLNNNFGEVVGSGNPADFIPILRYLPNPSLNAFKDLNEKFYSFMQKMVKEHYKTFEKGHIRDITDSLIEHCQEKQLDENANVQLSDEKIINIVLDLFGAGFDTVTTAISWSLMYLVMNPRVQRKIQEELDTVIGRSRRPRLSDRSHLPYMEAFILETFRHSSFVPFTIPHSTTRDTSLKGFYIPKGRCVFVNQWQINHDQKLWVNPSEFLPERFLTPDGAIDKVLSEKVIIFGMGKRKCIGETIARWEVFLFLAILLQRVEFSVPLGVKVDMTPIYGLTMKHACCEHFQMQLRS

| inhibition (INH) [2] | Structure (SMILES) | Ratio IC50 [1] | inhibition (INH) [3] |
| --- | --- | --- | --- |
|  | O=C(/C=C/c1ccccc1Cl)c1ccc[nH]1 | > 20 |  |
| Not Active | O=C(/C=C/c1ccc(OC(F)(F)F)cc1)c1ccc[nH]1 |  |  |
|  | COc1ccccc1/C=C/C(=O)c1ccc[nH]1 | > 20 | Active |

Source: ChEMBL document CHEMBL4052762, “Synthesis and biological evaluation of pyrrole-based chalcones as CYP1 enzyme inhibitors, for possible prevention of cancer and overcoming cisplatin resistance” (Bioorg Med Chem Lett, 2017)
